Assay results: PubChem BioAssay (NCI)
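Compound exposure: 48 hours, 5 concentrations, 96-well plates. At the TGI there is no net growth.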

Columns and labels:
Assay in all cases: growth of human tumour cells (NCI), 48 h
[1] = test system: DMS 273 small cell lung
[2] = test system: DMS 114 small cell lung
[3] = test system: LXFL 529 NSCLC
[4] = test system: M19-MEL melanoma
[5] = test system: DLD-1 colon
[6] = test system: SNB-78 CNS
[7] = test system: HOP-18 NSCLC
[8] = test system: KM20L2 colon
[9] = test system: RXF-631 renal
[10] = test system: XF 498 CNS

SMILES: CC1(C)OCN(c2ccc(N3CCOCC3)cc2)Cn2c1nc1ccccc12
- TGI [1]: > 100 µM
- TGI [2]: > 100 µM
- TGI [3]: > 100 µM
- TGI [4]: > 100 µM
- TGI [5]: > 100 µM
- TGI [6]: > 100 µM
- TGI [7]: > 100 µM
- TGI [8]: > 100 µM

SMILES: O=C1COc2cc(NC(=S)Nc3ccccc3)ccc2N1
- TGI [1]: > 100 µM
- TGI [2]: > 100 µM
- TGI [3]: > 100 µM
- TGI [4]: > 100 µM
- TGI [5]: > 100 µM
- TGI [6]: > 100 µM
- TGI [9]: > 100 µM
- TGI [7]: > 100 µM
- TGI [8]: > 100 µM
- TGI [10]: > 100 µM

SMILES: CC(=O)c1ccc(NC(=O)/C(CC(=O)c2sc(-c3cccnc3)nc2C)=N/NC(N)=O)cc1
- TGI [2]: > 100 µM
- TGI [3]: > 100 µM
- TGI [4]: > 100 µM
- TGI [6]: > 100 µM
- TGI [8]: > 100 µM
- TGI [10]: > 100 µM

SMILES: CS(=O)(=O)C(C#N)c1nc2ccccc2nc1Cl (stereo not given)
- TGI [1]: > 100 µM
- TGI [2]: > 100 µM
- TGI [3]: > 100 µM
- TGI [4]: > 100 µM
- TGI [5]: > 100 µM
- TGI [6]: > 100 µM
- TGI [10]: > 100 µM

SMILES: CCOC1C(Br)Cn2c(=O)c3cc4ccccc4cc3c(=O)n2C1C (stereo not given)
- TGI [1]: > 100 µM
- TGI [2]: > 100 µM
- TGI [3]: > 100 µM
- TGI [4]: > 100 µM
- TGI [5]: > 100 µM
- TGI [6]: > 100 µM
- TGI [8]: > 100 µM
- TGI [10]: > 100 µM

SMILES: CCC(CC)NC1=C(NC(C)=O)C(=O)c2ccccc2C1=O
- TGI [1]: > 50 µM
- TGI [3]: > 50 µM
- TGI [4]: > 50 µM
- TGI [5]: > 50 µM
- TGI [6]: > 50 µM
- TGI [8]: > 50 µM
- TGI [10]: > 50 µM

SMILES: O=S(Cc1ccccc1)c1nc2ccccc2nc1-c1cccs1 (stereo not given)
- TGI [1]: 22.7 µM
- TGI [2]: 5.91 µM
- TGI [3]: 12.8 µM
- TGI [4]: 22.6 µM
- TGI [5]: 24.6 µM
- TGI [6]: 56.2 µM
- TGI [7]: 29.5 µM
- TGI [10]: 12.3 µM

SMILES: COc1ccc2nc3cc(Cl)ccc3c(Sc3ccc([N+](=O)[O-])cc3C)c2c1
- TGI [1]: > 100 µM
- TGI [2]: > 100 µM
- TGI [3]: > 100 µM
- TGI [4]: > 100 µM
- TGI [5]: > 100 µM
- TGI [6]: > 100 µM
- TGI [7]: > 100 µM
- TGI [8]: > 100 µM
- TGI [10]: > 100 µM

SMILES: O=C(Nc1cccc(O)c1)C(=O)C1C(=O)NC(=S)NC1=O
- TGI [1]: > 100 µM
- TGI [2]: > 100 µM
- TGI [3]: > 100 µM
- TGI [4]: > 100 µM
- TGI [5]: > 100 µM
- TGI [6]: > 100 µM
- TGI [7]: > 100 µM
- TGI [8]: > 100 µM
- TGI [10]: > 100 µM

SMILES: N#C/C(=C/c1cccc(Oc2ccccc2)c1)c1ccccc1
- TGI [2]: > 100 µM
- TGI [3]: > 100 µM
- TGI [4]: > 100 µM
- TGI [5]: > 100 µM
- TGI [6]: > 100 µM
- TGI [7]: > 100 µM
- TGI [10]: > 100 µM

SMILES: CCC1=CCN(c2cc(C)ccn2)OC1c1ccc(OC)cc1 (stereo not given)
- TGI [2]: 91.6 µM
- TGI [3]: > 100 µM
- TGI [4]: > 100 µM
- TGI [5]: > 100 µM
- TGI [9]: > 100 µM
- TGI [8]: > 100 µM
